The source of these data is patent US12029721B2, “Compositions comprising cannabinoids and methods of use” (Schedule 1 Therapeutics, Inc., priority 2021, dated 2024).

Assay type in all cases: in vivo, mouse
The test system of data set [1] is wild-type CD1 mice. Description: Rotarod assay (motor function). To be noted: for time to fall from the rod, average across 3 trials on treatment day: FIG. 11, CBD 100 mg/kg, THC 1 mg/kg, 1:1, 100:1 given 60 min before, diazepam 5 mg/kg i.p. 30 min before; for latency to fall from the rod (motor function): FIG. 1A, first cohort, 3 consecutive 5 min trials, caffeine 100 mg/kg i.p. as positive control. As for the experimental part: Locomotor function was assessed using the rotarod (see Assay description and relevant methods in Example 5). Mice are placed on a turning rod with increasing speed of rotation. Latency to fall from the rod is collected.
The rotarod assay was used to measure impaired motor function in mice. The assay is divided into three trials of 5 min each separated by 10 min of resting time. For each trial, mice are place on a stationary rod. Once the animal is in place, the rod rotation was initiated at a rate of 4 rpm per min, with increasing speed up to 60 rpm at 5 min. Each animal was trained for two days following this protocol and tested on the third day. The latency to fall from the rod was reported as the mean+/−SEM of all the mice for each trial.
A week after Y-maze, motor function was assessed using rotarod. Administration of drugs was performed 60 min prior to testing except for caffeine (positive control) which was administered 30 min prior to testing.
Animals used in this experiment were also used for light aversion and spatial memory, and were tested a third time in the rotarod assay. Briefly, two weeks after the last Y-maze run, animals were subjected to 3 consecutive days of rotarod assay. The first two days were used for habituation, then animals were divided in 6 different treatment groups: • negative control group: vehicle (sunflower oil), • positive control group: diazepam (5 mg/kg i.p.), • CBD (100 mg/kg), • THC (1 mg/kg), • 1:1 (1 mg/kg of both CBD and THC), and • 100:1 (100 mg/kg of CBD and 1 mg/kg of THC).
All treatments were administered 60 minutes prior to the third day of rotarod assay, except for diazepam which was administered 30 minutes prior to the assay.
In general terms: In the rotarod test animals must keep their balance on a rotating rod.

The test system of data set [2] is wild-type CD1 mice. Briefly: Light/dark assay, CGRP-induced light aversion (Test 1). As for the experimental part: All drugs were administered by intraperitoneal (i.p.) injection. CGRP and caffeine were administered at 10 μl/g bodyweight with a 30 g×0.5 needle. CBD, THC and the diverse ratios of CBD:THC were administered at 3.3 μl/g bodyweight with a 23 g×0.5 needle. Rat α-CGRP (Sigma-Aldrich, USA) was administered at 0.1 mg/kg, caffeine (Sigma-Aldrich, USA) was administered at 100 mg/kg, and both were diluted in vehicle, Dulbecco PBS (Hyclone, GE Healthcare Life Science, USA). CBD was administered at 1 or 100 mg/kg, THC was administered at 1 mg/kg, and both were diluted in vehicle sunflower oil (Sigma-Aldrich, USA) Animals were gently held but not anesthetized during injection. Mice were allowed to recover for 30 to 60 min in their home cages before testing (see figure legend and experimental design for precisions).
(§1) The light/dark assay was used to measure the animals' aversion to bright light, which is a surrogate for photophobia. Briefly, mice are placed individually in light/dark boxes that consist in two compartments, one brightly lit and the other not lit, black and fully enclosed. Mice can move freely in between them. An infrared beam tracking system (Med Associates) monitors and quantifies the behavior. Light-aversive animals will spend more time in the dark compartment than naïve animals Data were collected using Activity Monitor version 7.06 from twelve chambers as previously described. Mice were pre-exposed to the chamber once (baseline, data not shown) to reduce exploratory drive, then tested with bright light (25,000 lux). Data were collected for 30 min and analyzed in sequential 5 min intervals. The time in light was reported as the mean+/−SEM of all the mice at each interval and as the mean+/−SEM of the average time per interval for each individual mouse.
Test 1: test the efficacy of CBD and/or THC on CGRP-induced light aversion. Drug administration was performed i.p. by ASW or AK, 60 minutes prior to testing. Thirty minutes before testing, animals were injected a second time with CGRP (0.1 mg/kg) in order to induce the migraine-like state. Only one group was administered with PBS and represents the negative control in this run. The group that received sunflower oil+CGRP represents the positive control. Those injections were also performed i.p by ASW or AK. Thirty minutes later, animals were placed in the light aversion chambers, and tested for 30 minutes.

Data set [3] has as its system wild-type CD1 mice. Description: Y-maze assay (spatial memory). To be noted: treatments 55 minutes prior to the first trial; CBD 100 mg/kg, THC 1 mg/kg, 1:1, 100:1. As for the experimental part: The Y-maze assay was used to measure spatial memory using a 3-arm maze. The assay is divided into two trials separated by an intertrial period. During the first trial, one arm (novel arm) is closed, and mice are left to explore the two other arms for 5 min. Mice are then placed back in their home cages for the 2 min intertrial period. During the second trial, mice are able to explore all arms. A mouse with a good spatial memory will enter the previously unexplored (novel) arm more frequently than the other arms. A mouse with poor spatial memory will show no preference. The number of entries and time in the novel arm during the second trial was reported as the mean+/−SEM of all the mice at each interval (30 sec) and as the mean+/−SEM of the total time for the trial for each individual mouse.
A week after Test 2, spatial memory was assessed using Y-maze. Administration of drugs was performed 60 min prior to testing except for CGRP (positive control) which was administered 30 min prior to testing.
Animals used in this experiment were also used for light aversion (and later rotarod). […]
All treatments were administered 55 minutes prior to the first 5-minute trial, and therefore 62 minutes before the second 2-minute trial. No effect of CBD, THC and CBD:THC ratios on spatial memory was assessed by the Y-maze.

In data set [4] the test system is wild-type CD1 mice. Briefly: Light/dark assay without CGRP trigger (Test 2). Particulars: FIG. 4, absence of the CGRP trigger; average per 5 minutes.
Excerpt: as §1
Test 2: test the possible effects of CBD and/or THC by themselves on light aversion. Animals were given a week to recover. Then the same groups were used for Test 2, and only the second injection was reversed. All groups received vehicle 30 minutes before testing, except for the first group that was administered with CGRP and was the positive control for this test. […]

The mark [5] stands for this setting: FIG. 5A, all mice, co-administered with CGRP.
[6] abbreviates: FIGS. 3A-3B, all mice, drugs i.p. 60 min, CGRP 0.1 mg/kg 30 min before testing, CBD 100 mg/kg, THC 1 mg/kg.

As for `C=C(C)[C@@H]1CCC(C)=C[C@H]1c1c(O)cc(CCCCC)cc1O` [CBD, cannabidiol], the “time to fall from the rod, average across 3 trials on treatment day” value (“time to fall from the rod” for short) with wild-type CD1 mice [1] was “yielded similar results as the vehicle group”. In addition, in the data set on wild-type CD1 mice [2] (setting [5]), the “time spent resting in the dark (CGRP-induced increase)” value is listed as “neither CBD alone nor the 1:1 ratio reversed this increased resting time”. In the data set with wild-type CD1 mice [2] (setting [6]), the “time spent in the light (CGRP-induced light aversion)” value (from here on “time spent in the light”) is on record as “failed to reverse the CGRP-induced decrease in time spent in the light”. The “spatial memory: number of entries and time spent in the novel arm during trial 2” value in the data set on wild-type CD1 mice [3] was “No effect”.
In the case of `CCCCCc1cc(O)c2c(c1)OC(C)(C)[C@@H]1CCC(C)=C[C@@H]21` [THC, tetrahydrocannabinol], in the data set with wild-type CD1 mice [1], the “latency to fall from the rod (motor function)” value is given as “seemed to increase motor function (trend only)” and the “time to fall from the rod” value is given as “showed increases in time to fall that were not significant”. Further, in the data set with wild-type CD1 mice [2] (setting [5]), the “time spent resting in the dark (CGRP-induced increase)” value was “seem to attenuate the phenotype”. In addition, in the data set on wild-type CD1 mice [2] (FIG. 5C, male mice), the “time spent resting in the dark (CGRP-induced increase)” value was “seemed to have an effect”. For the same compound, in the data set on wild-type CD1 mice [2] (setting [6]), the “time spent in the light” value is “failed to reverse the CGRP-induced decrease in time spent in the light”. The “spatial memory: number of entries and time spent in the novel arm during trial 2” value with wild-type CD1 mice [3] was “No effect”.
Consider `Cn1c(=O)c2c(ncn2C)n(C)c1=O` [caffeine], for which the “latency to fall from the rod (motor function)” value in the data set on wild-type CD1 mice [1] is on record as “didn't yield the expected results”.
Take `CN1C(=O)CN=C(c2ccccc2)c2cc(Cl)ccc21` [diazepam]: the “latency to fall from the rod” value in the data set with wild-type CD1 mice [1] (FIG. 1B, rotarod trial with diazepam as positive control) is on record as “produced the expected increased time to fall”. Also, in the data set with wild-type CD1 mice [1], the “time to fall from the rod” value is reported as “showed a robust decrease in time to fall from the rod”.
Regarding calcitonin gene-related peptide [CGRP], the “time spent in the light” value in the data set on wild-type CD1 mice [2] (FIG. 3D, male mice) is “inducing a strong and significant decrease of the time spent in the light compartment”; in the data set with wild-type CD1 mice [2] (FIG. 7, experiment with 30:1, 100:1 as control ratio), “induces a significant decrease in time spent in the light”; in the data set on wild-type CD1 mice [2] (setting [6]), “induces a significant decrease in time spent in the light”. In the data set with wild-type CD1 mice [2] (setting [5]), the “time spent resting in the dark (CGRP-induced increase)” value is reported as “induces a significant increase in the time spent resting in the dark”. In the data set on wild-type CD1 mice [2] (FIG. 6, data as a function of time), the “time spent resting in the light compartment” value was “does not increase the time spent resting in the light compartment”. For the same compound, the “average time in the light” value with wild-type CD1 mice [4] is “spending less time in the light than the veh+veh mice”.
